Results published in article PMC11364104, “Discovery of SARS-CoV-2 papain-like protease (PL^pro) inhibitors with efficacy in a murine infection model” (Science Advances, 2024).
Read-outs that look alike come from different tables or passages of the source.

How the values were obtained:
[1] = Rat pharmacokinetics; assay type: in vivo, Wistar-Hannover rat; conditions: for Vd: rat, iv, 1 mg/kg, read-out: Vdss
Description: Figure S1. Setting Up the Collaboration Workflow and Operations
Preclinical Pharmacokinetics Studies
All activities involving animals were carried out in accordance with federal, state, local and institutional guidelines governing the use of laboratory animals in research in AAALAC accredited facilities and were reviewed and approved by Pfizer’s or Bioduro’s Institutional Animal Care and Use committee.
Mouse pharmacokinetic studies were done at BioDuro Pharmaceutical Product Development Inc. (Shanghai, PRC); male C57BL6 mice were purchased from Vital River (Beijing, China) and were typically 7-9 weeks of age at the time of dosing. During the pharmacokinetic studies all animals were housed individually. Access to food and water was provided ad libitum (i.e., subjects were dosed in the fed state). Compounds were administered intravenously (iv) via tail vein (n=2) dosed as a solution (1 mg/kg, 3 mL/kg) or via oral gavage as a solution (10 mg/kg, 3 mL/kg and 30 mg/kg, 3mL/kg) or as a suspension (15 mg/kg, 10 mL/kg; 50 mg/kg, 10 mL/kg; and 150 mg/kg, 10mL/kg). Dosing solutions were prepared immediately before dosing. The composition of each dosing vehicle is provided in Tables S5 and S6. Isoflurane was administered as anesthesia at 1-2% dose prior to collecting blood samples. Serial blood samples were collected via the retroorbital capillary at predetermined timepoints after dosing. Animals were monitored for pain or distress throughout the study, with at least daily monitoring during normal husbandry prior to study start. At the completion of the study, animals were euthanized by overdose of inhaled carbon dioxide. Blood samples were collected into tubes containing K2EDTA and stored on ice until centrifugation to obtain plasma, which was stored frozen at - 20 °C or lower until bioanalysis.
Rat pharmacokinetic studies were done at BioDuro Pharmaceutical Product Development Inc. (Shanghai, PRC); jugular vein- cannulated male Wistar-Hannover rats were purchased
(1 picture or pasted object on this page, not shown here) […]
from Vital River (Beijing, China) and were typically 7-9 weeks of age at the time of dosing.
During the pharmacokinetic studies all animals were housed individually. Access to food and water was provided ad libitum (i.e., subjects were dosed in the fed state). In the instances where oral (po) dose was administered in the fed state, with ad libitum access to food and water. Compounds were administered intravenously (iv) via the tail vein (n = 2) dosed as a solution (1 mg/kg, 3 ml/kg) or via oral gavage as a solution (10 mg/kg, 10 ml/kg). Dosing solutions were prepared immediately before dosing. The composition of each dosing vehicle […]
Serial blood samples were collected via the jugular vein cannula at […]
centrifugation to obtain plasma, which was stored frozen at - 20 °C or lower.
Dog pharmacokinetic studies were done at Pfizer (Groton, CT). All procedures performed on beagle dogs were in accordance with regulations and established guidelines and were reviewed and approved by an Institutional Animal Care and Use Committee through an ethical review process. Male Beagle dogs were purchased from Marshall Bioresources (North Rose, NY); subjects 3 years of age were used in pharmacokinetics studies. For each study (n=2), compounds were dosed iv by cephalic vein as a solution (0.5 mg/kg, 1 mL/kg) or via oral gavage as a suspension (3 mg/kg, 5 mL/kg). In the instances where oral (po) dose was administered in the fed state, dogs were fed a couple hours before dosing. In the instances where the IV dose was administered in the fasted state, dogs were fasted over night and fed 4 hours post dose. Subjects were monitored for pain or distress throughout the study followed by at least daily monitoring while off study. The iv dosing vehicle was optimized such that the compounds were in solution and stable for at least 24 h. Serial blood samples were collected via the jugular vein at predefined time points post-dose. Blood […]

[2] = Media binding for in vitro cell systems; assay type: in vitro ADME
[3] = biological target: hCoV-229E_PLpro2 (Human coronavirus 229E, UniProt P0C6X1); experiment: biochemical; design: species or system 229E-CoV
Sequence of hCoV-229E_PLpro2 (P0C6X1 1663-1914): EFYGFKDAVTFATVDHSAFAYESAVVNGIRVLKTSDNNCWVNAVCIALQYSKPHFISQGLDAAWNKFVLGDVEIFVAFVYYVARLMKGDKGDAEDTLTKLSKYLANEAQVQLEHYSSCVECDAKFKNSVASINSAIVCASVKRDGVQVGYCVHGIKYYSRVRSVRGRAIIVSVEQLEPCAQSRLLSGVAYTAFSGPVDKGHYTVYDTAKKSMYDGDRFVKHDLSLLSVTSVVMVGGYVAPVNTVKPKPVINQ

[4] = biological target: T1, Human Cathepsin B (Homo sapiens, UniProt P07858); experiment: biochemical
T1 construct: assay run at Reaction Biology Corporation

[5] = biological target: T2, Adenosine A2a (Homo sapiens, UniProt P29274); experiment: CEREP functional agonism; assay type: cell-based; conditions: 30 µM
T2 construct: purchased Eurofins Cerep

[6] = biological target: T3, Abl Kinase (Homo sapiens, UniProt P00519); experiment: CEREP kinase inhibition; assay type: biochemical
T3 construct: purchased Eurofins Cerep
T3 sequence (P00519 whole entry): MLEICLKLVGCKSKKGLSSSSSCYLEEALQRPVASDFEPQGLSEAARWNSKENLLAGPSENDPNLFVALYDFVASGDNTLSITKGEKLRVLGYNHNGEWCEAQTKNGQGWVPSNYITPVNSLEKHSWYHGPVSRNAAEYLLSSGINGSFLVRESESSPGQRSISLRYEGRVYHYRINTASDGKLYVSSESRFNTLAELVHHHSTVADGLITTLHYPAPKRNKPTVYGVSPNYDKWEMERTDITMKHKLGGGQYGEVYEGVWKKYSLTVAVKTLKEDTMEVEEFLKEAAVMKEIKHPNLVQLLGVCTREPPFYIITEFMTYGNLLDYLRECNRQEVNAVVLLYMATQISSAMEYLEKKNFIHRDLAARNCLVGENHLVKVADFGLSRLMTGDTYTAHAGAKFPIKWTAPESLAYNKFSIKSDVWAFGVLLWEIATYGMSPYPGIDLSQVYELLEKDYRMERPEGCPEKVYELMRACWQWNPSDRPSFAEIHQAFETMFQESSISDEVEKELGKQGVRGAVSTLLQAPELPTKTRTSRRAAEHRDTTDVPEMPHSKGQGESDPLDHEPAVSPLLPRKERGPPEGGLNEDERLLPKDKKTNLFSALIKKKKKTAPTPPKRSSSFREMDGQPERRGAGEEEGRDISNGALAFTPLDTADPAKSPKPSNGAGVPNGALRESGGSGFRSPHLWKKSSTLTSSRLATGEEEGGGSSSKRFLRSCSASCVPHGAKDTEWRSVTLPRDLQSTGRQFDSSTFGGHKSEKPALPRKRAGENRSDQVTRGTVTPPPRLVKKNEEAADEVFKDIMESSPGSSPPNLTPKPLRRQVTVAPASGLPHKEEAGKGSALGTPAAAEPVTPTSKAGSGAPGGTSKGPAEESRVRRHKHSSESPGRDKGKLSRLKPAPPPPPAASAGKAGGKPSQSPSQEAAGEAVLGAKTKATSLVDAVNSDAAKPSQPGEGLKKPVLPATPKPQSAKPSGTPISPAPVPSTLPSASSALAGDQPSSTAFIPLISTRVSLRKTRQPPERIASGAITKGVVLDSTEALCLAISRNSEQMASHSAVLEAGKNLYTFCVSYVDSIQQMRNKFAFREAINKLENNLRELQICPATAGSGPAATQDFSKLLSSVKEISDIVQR

[7] = biological target: T4, Lck Kinase (Homo sapiens, UniProt P06239); experiment: CEREP kinase inhibition; assay type: biochemical
T4 construct: purchased Eurofins Cerep

[8] = biological target: T5, P38 MAP Kinase (Homo sapiens, UniProt Q16539); experiment: CEREP kinase inhibition; assay type: biochemical
T5 construct: purchased Eurofins Cerep

[9] = biological target: T6, Src Kinase (Homo sapiens, UniProt P12931); experiment: CEREP kinase inhibition; assay type: biochemical
T6 construct: purchased Eurofins Cerep

[10] = biological target: T7, VEGFR2 Kinase (Homo sapiens, UniProt P35968); experiment: CEREP kinase inhibition; assay type: biochemical
T7 construct: purchased Eurofins Cerep
T7 sequence (P35968 20-1356): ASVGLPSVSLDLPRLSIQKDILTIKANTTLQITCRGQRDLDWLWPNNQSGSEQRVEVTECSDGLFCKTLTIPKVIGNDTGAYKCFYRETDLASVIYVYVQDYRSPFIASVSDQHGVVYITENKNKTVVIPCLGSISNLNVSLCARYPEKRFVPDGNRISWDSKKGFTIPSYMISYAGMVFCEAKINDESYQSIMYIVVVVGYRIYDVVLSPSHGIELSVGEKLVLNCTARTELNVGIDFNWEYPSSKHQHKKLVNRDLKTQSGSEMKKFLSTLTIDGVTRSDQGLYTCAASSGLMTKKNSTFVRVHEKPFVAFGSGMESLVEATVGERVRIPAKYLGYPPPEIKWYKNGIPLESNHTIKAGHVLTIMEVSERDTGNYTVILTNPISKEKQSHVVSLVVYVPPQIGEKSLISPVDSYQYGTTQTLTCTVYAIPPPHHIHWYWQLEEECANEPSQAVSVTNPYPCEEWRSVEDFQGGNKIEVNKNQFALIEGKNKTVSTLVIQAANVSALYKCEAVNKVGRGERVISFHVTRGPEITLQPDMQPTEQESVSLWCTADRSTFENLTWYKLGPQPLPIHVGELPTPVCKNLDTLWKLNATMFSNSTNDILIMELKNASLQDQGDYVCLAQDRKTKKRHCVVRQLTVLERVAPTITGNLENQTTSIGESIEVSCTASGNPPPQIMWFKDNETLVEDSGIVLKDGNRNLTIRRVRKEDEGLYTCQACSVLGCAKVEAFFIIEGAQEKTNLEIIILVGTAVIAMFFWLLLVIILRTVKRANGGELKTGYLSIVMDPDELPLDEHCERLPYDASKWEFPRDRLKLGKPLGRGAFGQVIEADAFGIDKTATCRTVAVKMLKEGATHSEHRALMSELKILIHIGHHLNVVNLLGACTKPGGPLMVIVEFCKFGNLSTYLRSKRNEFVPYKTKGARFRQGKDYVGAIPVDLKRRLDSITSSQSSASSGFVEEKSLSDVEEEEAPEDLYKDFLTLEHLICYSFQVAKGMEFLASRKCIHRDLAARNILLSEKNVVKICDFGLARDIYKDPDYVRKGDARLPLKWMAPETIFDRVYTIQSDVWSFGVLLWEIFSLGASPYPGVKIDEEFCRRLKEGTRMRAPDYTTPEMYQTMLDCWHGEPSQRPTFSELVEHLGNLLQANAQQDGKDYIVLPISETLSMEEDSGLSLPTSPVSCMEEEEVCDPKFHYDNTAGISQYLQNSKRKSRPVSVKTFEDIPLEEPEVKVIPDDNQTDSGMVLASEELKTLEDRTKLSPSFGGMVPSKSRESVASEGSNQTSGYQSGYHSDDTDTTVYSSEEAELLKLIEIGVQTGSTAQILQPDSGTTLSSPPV

[11] = biological target: T8, Dopamine Transporter (Homo sapiens, UniProt Q01959); experiment: CEREP transporters-binding
T8 construct: purchased Eurofins Cerep
T8 sequence (Q01959 whole entry): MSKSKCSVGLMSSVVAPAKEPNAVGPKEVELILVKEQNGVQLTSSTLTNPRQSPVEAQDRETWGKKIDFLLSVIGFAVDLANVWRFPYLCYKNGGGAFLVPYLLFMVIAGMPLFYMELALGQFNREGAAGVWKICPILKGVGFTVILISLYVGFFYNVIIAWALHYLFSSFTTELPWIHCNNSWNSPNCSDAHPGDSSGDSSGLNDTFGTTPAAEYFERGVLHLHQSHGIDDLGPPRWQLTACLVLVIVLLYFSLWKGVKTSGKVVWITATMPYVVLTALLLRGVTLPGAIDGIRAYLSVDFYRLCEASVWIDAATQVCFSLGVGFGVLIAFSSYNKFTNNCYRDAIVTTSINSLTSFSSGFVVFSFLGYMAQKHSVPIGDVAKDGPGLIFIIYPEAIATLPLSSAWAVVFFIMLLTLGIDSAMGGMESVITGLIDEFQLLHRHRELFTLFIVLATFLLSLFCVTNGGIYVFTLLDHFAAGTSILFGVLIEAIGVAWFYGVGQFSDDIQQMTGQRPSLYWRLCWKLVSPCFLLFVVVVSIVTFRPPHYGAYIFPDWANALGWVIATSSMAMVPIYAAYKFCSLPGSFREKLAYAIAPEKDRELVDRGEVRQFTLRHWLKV

[12] = biological target: T9, Androgen Receptor (Binding) (Homo sapiens, UniProt P10275); experiment: CEREP NHR-binding
T9 construct: purchased Eurofins Cerep
T9 sequence (P10275 whole entry): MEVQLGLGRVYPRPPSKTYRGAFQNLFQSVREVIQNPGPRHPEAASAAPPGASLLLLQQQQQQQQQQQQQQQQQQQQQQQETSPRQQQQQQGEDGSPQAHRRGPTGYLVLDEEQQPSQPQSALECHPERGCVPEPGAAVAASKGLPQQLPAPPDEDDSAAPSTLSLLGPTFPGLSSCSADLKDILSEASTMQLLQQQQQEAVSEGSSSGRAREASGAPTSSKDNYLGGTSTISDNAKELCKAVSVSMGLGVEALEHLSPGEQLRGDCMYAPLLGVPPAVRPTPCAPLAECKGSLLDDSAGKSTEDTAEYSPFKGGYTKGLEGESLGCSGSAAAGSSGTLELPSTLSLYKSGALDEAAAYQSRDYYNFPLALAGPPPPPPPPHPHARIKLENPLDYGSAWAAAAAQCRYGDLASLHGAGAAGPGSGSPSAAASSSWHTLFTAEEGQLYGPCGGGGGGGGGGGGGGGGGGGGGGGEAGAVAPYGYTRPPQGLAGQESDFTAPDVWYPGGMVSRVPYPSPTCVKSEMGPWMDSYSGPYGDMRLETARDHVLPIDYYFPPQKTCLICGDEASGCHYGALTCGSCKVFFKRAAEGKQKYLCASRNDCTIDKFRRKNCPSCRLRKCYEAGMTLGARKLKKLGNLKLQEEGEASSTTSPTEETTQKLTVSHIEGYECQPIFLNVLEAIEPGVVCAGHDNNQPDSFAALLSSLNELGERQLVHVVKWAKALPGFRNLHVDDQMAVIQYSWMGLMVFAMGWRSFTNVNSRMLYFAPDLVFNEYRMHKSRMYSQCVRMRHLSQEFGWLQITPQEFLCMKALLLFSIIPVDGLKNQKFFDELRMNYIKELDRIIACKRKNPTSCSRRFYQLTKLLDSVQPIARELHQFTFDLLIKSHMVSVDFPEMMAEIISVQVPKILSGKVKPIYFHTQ

[13] = biological target: T10, Glucocorticoid Receptor (Binding) (Homo sapiens, UniProt P04150); experiment: CEREP NHR-binding
T10 construct: purchased Eurofins Cerep
T10 sequence (P04150 whole entry): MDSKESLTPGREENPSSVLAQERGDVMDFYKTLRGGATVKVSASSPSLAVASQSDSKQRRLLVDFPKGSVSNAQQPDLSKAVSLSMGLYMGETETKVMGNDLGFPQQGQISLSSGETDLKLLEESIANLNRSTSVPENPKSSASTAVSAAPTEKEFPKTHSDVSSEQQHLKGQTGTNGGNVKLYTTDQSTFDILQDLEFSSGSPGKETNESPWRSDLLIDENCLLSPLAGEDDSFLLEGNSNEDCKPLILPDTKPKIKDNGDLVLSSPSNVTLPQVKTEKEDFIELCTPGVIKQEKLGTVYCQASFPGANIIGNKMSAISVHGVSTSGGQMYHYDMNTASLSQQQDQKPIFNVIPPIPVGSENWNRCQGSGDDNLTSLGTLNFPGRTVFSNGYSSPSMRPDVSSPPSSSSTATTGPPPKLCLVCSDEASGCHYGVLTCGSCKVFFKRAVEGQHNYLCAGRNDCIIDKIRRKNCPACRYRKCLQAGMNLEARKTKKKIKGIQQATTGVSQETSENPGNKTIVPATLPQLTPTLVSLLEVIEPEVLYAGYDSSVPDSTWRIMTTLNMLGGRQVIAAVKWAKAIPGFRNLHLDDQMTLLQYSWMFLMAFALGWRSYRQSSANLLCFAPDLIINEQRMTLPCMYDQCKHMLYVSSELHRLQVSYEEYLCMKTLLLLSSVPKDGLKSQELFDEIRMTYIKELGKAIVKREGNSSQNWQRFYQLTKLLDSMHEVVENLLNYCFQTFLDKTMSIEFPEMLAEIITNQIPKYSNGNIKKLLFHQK

[14] = tested on: NMDA Receptor; experiment: CEREP ion channel-binding; conditions: 30 µM
[15] = tested on: NMDA Receptor (PCP site); experiment: CEREP ion channel-binding; conditions: 30 µM
[16] = tested on: Sodium (Site 2); experiment: CEREP ion channel-binding; conditions: 30 µM
[17] = biological target: CYP1A2 (Homo sapiens, UniProt P05177); experiment: biochemical
[18] = Metabolic stability in cryopreserved human hepatocytes
[19] = In vitro genetic toxicity (bacterial reverse mutation assay); conditions: in vitro genetic toxicity studies; listed as PF-07957472
[20] = Wistar-Hannover, plasma, Male Wistar Hanover Rat, 1.0 mg/kg iv, solution, mean n=2
[21] = Wistar-Hannover, plasma, Male Wistar Hanover Rat, 10 mg/kg po, solution, mean n=2

Cc1ccc(N2CCN(C)CC2)cc1C(=O)NC1(c2cc(-c3cnn(C)c3)nc3ccccc23)CC1 [Compound 4]
Oral F ([1]; Male Wistar Hanover Rat, 10 mg/kg po, solution, mean n=2): 69.7%
AUC(0-inf) [1, 20]: 668 ng·h/mL
half-life [1, 20]: 3.59 h
clearance ([1]; Wistar-Hannover, plasma, Male Wistar Hanover Rat, 1.0 mg/kg iv, solution, mean n=2, read-out: CLp): 25.2 mL/min/kg
AUC(0-inf) [1, 21]: 4650 ng·h/mL
Cmax [1, 21]: 435 ng/mL
Tmax [1, 21]: 3 h
half-life [1, 21]: 3.19 h
bioavailability ([1]; male, Wistar-Hannover, plasma, po, 10 mg/kg, rat (r), read-out: Oral F (%)): 69.7%
Vd ([1]; male, Wistar-Hannover, plasma, Male Wistar Hanover Rat, 1.0 mg/kg iv, solution, mean n=2): 4.42 L/kg
Vd ([1]; male, Wistar-Hannover, plasma, rat (r), intravenous): 4.4 L/kg
fraction unbound ([2]; bovine, cell culture medium (2% HI-FBS in DMEM), media: 2% HI-FBS in DMEM, n = 4, read-out: Fu (CV)): 0.749
fraction unbound ([2]; dNHBE medium, read-out: fraction unbound in the dNHBE medium): 0.916
Ki [3]: > 10 µM
activity on 229E PL^pro [3]: nearly inactive
IC50 [4]: > 100 µM
% response [5]: 0%
inhibition at 30 µM [6]: 2%
inhibition at 30 µM [7]: -1%
inhibition at 30 µM [8]: 10%
inhibition at 30 µM [9]: -5%
inhibition at 30 µM [10]: 11%
inhibition at 30 µM [11]: 8%
inhibition at 30 µM [12]: -10%
inhibition at 30 µM [13]: 2%
% inhibition [14]: -2%
% inhibition [15]: 14%
% inhibition [16]: -15%
IC50 [17]: 72.2 µM
hepatocyte CLint [18]: 8.84 µL/min/1e6 cells
In vitro genotoxicity screen [19]: not mutagenic or clastogenic
